Assay: apparent (effective) diffusion coefficient from internal standard-based calibration of the dispersion model
Format: physicochemical
Settings: coiled tube, 50 μL/min, 25° C.; sucrose internal standard and Equation 1 calibration by Mr
Experimental: In one example, the rapid dispersion injection method is performed in a biosensor comprising a flow channel conduit that is in fluid connection with a flow cell conduit downstream from the analyte sample injection point. The flow channel conduit is tightly coiled around a vertically-oriented support and is preferably filled with a carrier fluid free of analyte prior to the analyte sample injection. Although it is preferred to use a vertically-oriented coil, it is not essential and other configurations are possible. The flow cell conduit houses at least two sensing regions, a first sensing region having one or more ligands immobilized on its surface and a second sensing region free of ligand. A first fluid sample comprising a reference material (e.g. sucrose) of sufficient molecular weight and concentration to elicit a bulk refractive index response is injected into the flow channel conduit under conditions sufficient to cause the reference material to undergo a dispersion event in route to the flow cell thereby producing a concentration gradient. […] The bulk refractive index response of the reference material is recorded at the second sensing surface as the first fluid sample flows continuously through the flow cell thereby generating a standard curve. The standard curve provides an internal standard which acts as a witness to the particular injection conditions of that assay. The standard curve is then fitted to the dispersion model (Equations 2 and 3 described below) to calculate a reference diffusion coefficient. […]
In brief, the universal calibration function was determined by measuring the bulk refractive index response of eight different compounds of varying molecular (Mr) under twenty-seven experimental dispersion conditions. […] An apparent diffusion coefficient (D′) was obtained for the eight compounds by fitting the dispersion model defined by Equations 2 and 3 (set forth below) to each measured bulk refractive index response curve. […]

Row | SMILES | Dapp (apparent / effective diffusion coefficient) [m^2s^−1]
1 | CC(=O)Nc1nnc(S(N)(=O)=O)s1 [Acetazolamide, acetazolamide] | 9.67E−10
2 | NS(=O)(=O)c1ccc(C(=O)O)cc1 [CBS, 4-carboxybenzenesulfonamide] | 1.01E−09
3 | NS(=O)(=O)c1cc(C(=O)O)c(NCc2ccco2)cc1Cl [Furosemide, furosemide] | 8.29E−10

From patent publication US9990464B1, “Label-free biomolecular interaction analysis using a rapid analyte dispersion injection method” (SENSIQ TECHNOLOGIES, INC., priority 2012, dated 2018)
